Assay results reported in BindingDB's records for doi:10.1016/0960-894X(96)00018-2 (1996).

Molecular target: T1, Prostatic acid phosphatase (Homo sapiens, UniProt P15309)
T1 sequence (P15309 whole entry): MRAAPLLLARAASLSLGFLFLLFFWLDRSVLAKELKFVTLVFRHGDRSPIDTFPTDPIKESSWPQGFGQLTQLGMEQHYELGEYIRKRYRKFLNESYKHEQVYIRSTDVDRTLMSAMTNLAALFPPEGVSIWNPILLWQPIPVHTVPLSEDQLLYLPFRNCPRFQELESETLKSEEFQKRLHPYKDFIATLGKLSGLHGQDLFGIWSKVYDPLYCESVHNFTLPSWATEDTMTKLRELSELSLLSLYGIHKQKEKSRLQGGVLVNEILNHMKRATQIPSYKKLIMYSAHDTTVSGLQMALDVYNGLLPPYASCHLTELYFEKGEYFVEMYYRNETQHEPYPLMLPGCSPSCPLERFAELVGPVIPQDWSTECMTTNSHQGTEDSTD
Assay: ChEBML_158626
Protocol: Inhibition of human prostatic acid phosphatase was determined as inhibition of the hydrolysis of tyrosine phosphate

IC50 | Compound
> 100 µM | OP(O)(O)=c1c2ccccc2ccc2ccccc12 [(5H-Dibenzo[a,d]cyclohepten-5-yl)-phosphonic acid]
> 100 µM | OP(O)(O)=c1c2ccccc2sc2ccccc12 [(9H-Thioxanthen-9-yl)-phosphonic acid]
